Columns and labels:
[1] = tested on: Monocotyledonous and dicotyledonous test plants; experiment: Herbicidal action before emergence of the plants (pre-emergence action), greenhouse pot test, 9-level rating after 4 weeks; format: in vivo; conditions: 250 g/ha, rated after 4 weeks, 9-level scale
In short: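 Compounds applied pre-emergence as a spray (500 l water/ha) of aqueous suspension or emulsion onto soil immediately after sowing mono- and dicot species in pots. Greenhouse-grown; damage rated after 4 weeks on a 9-level scale (1=complete damage, 9=no effect).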

[2] = tested on: Monocotyledonous and dicotyledonous test plants; experiment: Post-emergence herbicidal action, greenhouse pot test, sprayed at the 2- to 3-leaf stage, 9-level rating after 2 to 3 weeks; format: in vivo; conditions: 250 g/ha, rated after 2 to 3 weeks, 9-level scale
In short: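 Plants grown in standard soil in pots; test substances sprayed at the 2- to 3-leaf stage at optimum dosage (500 l water/ha) as aqueous suspension or emulsion from formulated concentrates. Plants then kept in the greenhouse under optimum conditions; rated after 2 to 3 weeks on a 9-level scale (1=complete damage, 9=no effect).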

SMILES	Pre-emergence action rating, Abutilon [1]	Pre-emergence action rating, Amaranthus [1]	Pre-emergence action rating, Chenop. [1]	Pre-emergence action rating, Digitaria [1]	Pre-emergence action rating, Echino. [1]	Pre-emergence action rating, Panicum [1]	Post-emergence action rating, Abutilon [2]	Post-emergence action rating, Amaranth [2]	Post-emergence action rating, Chenop. [2]	Post-emergence action rating, Digitaria [2]	Post-emergence action rating, Echino. [2]	Post-emergence action rating, Ipopur. [2]	Post-emergence action rating, Panicum [2]	Post-emergence action rating, Xanth. [2]
O=C(C1=C(O)C2CCC(C2)C1=O)c1ccc(C(F)(F)F)nc1COCCOC1CCCCO1 (stereo not drawn) [A842-B52]	2	2	1	6	2	1	3	2	1	3	5	3	3	3
CCCCCCCC(=O)OCc1nc(C(F)(F)F)ccc1C(=O)C1=C(O)C2CCC(C2)C1=O (stereo not drawn) [A843-B52]	1	1	1	2	2	1	3	3	1	3	3	6	2	3
O=C(OCc1nc(C(F)(F)F)ccc1C(=O)C1=C(O)C2CCC(C2)C1=O)c1ccccc1 (stereo not drawn) [A844-B52]	1	1	1	2	2	1	3	3	1	3	4	3	2	3
O=C(C1=C(O)C2CCC(C2)C1=O)c1ccc(C(F)(F)F)nc1COCCOCC(F)(F)F (stereo not drawn) [A845-B52]	1	1	1	1	1	1	2	2	1	2	2	2	2	2
COCCCOCc1nc(C(F)(F)F)ccc1C(=O)C1=C(O)C2CCC(C2)C1=O (stereo not drawn) [A846-B52]	2	1	1	1	1	1	2	2	2	2	2	1	1	2
O=C(C1=C(O)C2CCC(C2)C1=O)c1ccc(C(F)(F)F)nc1COCCCO (stereo not drawn) [A847-B52]	4	1	4	3	2	1	2	3	1	2	1	4	1	2
